Source: patent publication US11905244B2, “Chemical modulators of store-operated calcium channels and their therapeutic applications” (The Texas A&M University System, priority 2017, dated 2024)

biological target: CRAC channel (Homo sapiens (Human), UniProt Q96D31); assay: GFP-NFAT translocation-based high-content screening (TG-stimulated HeLa cells stably expressing GFP-NFAT); format: cell-based; details: 200 μM compound
Source text: It is known that thapsigargin (TG) can induce the CRAC channel to open resulting in the calcium influx. The elevation of calcium in cytoplasm can activate the Ca^2+-calcineurin-NFAT pathway followed by NFAT translocation from the cytoplasm to the nucleus to regulate gene transcription. Therefore, the inventors built a GFP-NFAT translocation-based high-content screening method to evaluate the activity of compounds on CRAC channel. Briefly, a HeLa cell line stably expressing GFP-NFAT was established and used, and the images after chemical stimulation in the presence of TG were acquired using an IN Cell Analyzer 6000 confocal laser imaging system, and then the GFP fluorescent intensity ratio between cytoplasm and nucleus was analyzed to reflect the inhibitory activity of compound on CRAC channel.
Briefly, GFP-NFAT stable cells were cultured in Dulbecco's modified eagle's medium (DMEM) supplemented with 10% FBS in 5% carbon dioxide at 37° C. When it reached 90% confluency, a cell suspension with a concentration of […] was prepared, and an amount of 2000 cells per well (25 μL/well) was seeded in 384 well plate, putting it at the room temperature for 1 h to make sure the cells distribute evenly, then the cells were incubated overnight. First, primary screening of the selected compounds was conducted. A series of compound solutions with a concentration of 200 μM in MEDM medium were prepared in a 96 well plate and then added to a 384 well plate using a Beckman Coulter automatic drug adding system, in 4 duplicates, and incubated for 30 min at 37° C. SKF was selected as the positive control. Then, 1 μM TG and 1 mM Ca^2+ were added to 384-well plate using Beckman Coulter automatic drug adding system and incubated for 20 min. Subsequently, 384 well plate was gently washed with PBS twice, and the cells were fixed with 4% PFA (25 μl per well) for 10˜15 mins at room temperature, then washed with PBS gently, added 0.5% Triton X-100 (25 μL per well), and incubated for 5 mins aFt room temperature, stained with DAPI (1 μg/mL) for 5˜10 mins at room temperature, washed with PBS and added 30 μL PBS per well to image on confocal laser imaging system (objective lens: 10×, FITC and UV). Using Pipeline Plot software (NAFT translocation protocol), the intensity of green fluorescence was analyzed in nucleus and cytosol, calculate the ratio of nucleus:cytosol, normalize TG stimulate NFAT translocation as 1 and no TG adding as 0. Finally, the data was analyzed using GraphPad Prism 5 software.

Sequence of CRAC channel (Q96D31 whole entry): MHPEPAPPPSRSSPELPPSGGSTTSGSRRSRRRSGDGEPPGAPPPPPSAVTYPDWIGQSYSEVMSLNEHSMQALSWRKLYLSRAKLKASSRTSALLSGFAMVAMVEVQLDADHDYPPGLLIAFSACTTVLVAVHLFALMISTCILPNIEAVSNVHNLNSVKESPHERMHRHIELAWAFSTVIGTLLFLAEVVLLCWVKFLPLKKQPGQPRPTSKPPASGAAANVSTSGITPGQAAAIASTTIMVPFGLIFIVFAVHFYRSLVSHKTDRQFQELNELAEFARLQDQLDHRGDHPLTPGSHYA

| Inhibitory activity on CRAC channel in primary screening (NFAT nucleus-to-cytosol ratio) | Structure (SMILES) |
| --- | --- |
| good activity | CCN/C(=N\c1cccc(C(F)(F)F)c1)S[C@H]1CC(=O)N(c2ccc(C(=O)O)cc2)C1=O [Compound 03] |
| good inhibition | CCN/C(=N/c1ccc(C)c(Cl)c1)SC1CC(=O)N(c2ccc(C(=O)OC)cc2)C1=O (stereo not shown) [Compound 62] |

same assay, conditions: GFP-NFAT translocation assay; read-out: IC50 on CRAC channel

| IC50 [µM] | Structure (SMILES) |
| --- | --- |
| ~100 | CCN/C(=N\c1cccc(C(F)(F)F)c1)S[C@H]1CC(=O)N(c2ccc(C(=O)O)cc2)C1=O [Compound 03] |

same assay, conditions: Table 1, hits from virtual screening; unit inferred; read-out: IC50 Value

| IC50 [µM] | Structure (SMILES) |
| --- | --- |
| > 200 | O=C(CSCc1c(Cl)cccc1Cl)Nc1ccc(C(=O)O)cc1 [Compound 09] |
| > 200 | CC(SC1N=C(c2ccccc2)C(c2ccccc2)=N1)C(=O)O (stereo not shown) [Compound 22] |
| > 200 | CCc1ccc(C=C(C(=O)O)C(=O)O)s1 [Compound 23] |
| > 200 | C=CC[C@H]1N(c2ccccc2Cl)C[C@H]2[C@H](C(=O)O)[C@@H]3C=C[C@@]21O3 [Compound 25] |
| > 200 | CC(=C\C(=O)O)/C(=C/c1ccc(C)o1)C(=O)O [Compound 27] |
| > 200 | Nc1c(S(=O)(=O)O)ccc2c1C(=O)c1ccccc1C2=O [Compound 28] |
| > 200 | Cc1nn([C@H](CC(=O)O)C(=O)O)c(C)c1I [Compound 29] |
| > 200 | Cc1c(C(=O)O)nnn1-c1ccc(Br)cc1 [Compound 32] |
| > 200 | COc1ccc(-c2occ(C(=O)O)c2C(=O)O)cc1 [Compound 34] |
| > 200 | O=C(O)[C@H]1CC(=O)N(c2ccc(I)cc2)C1 [Compound 39] |
| > 200 | Cc1ccc(N2C(=O)c3ccc(C(=O)O)cc3C2=O)cc1Cl [Compound 42] |
| > 200 | Nc1nc(C(=O)O)nn1C12CC3CC(CC(C3)C1)C2 [Compound 48] |
| > 200 | O=c1[nH]nnc2c1C1=C(CCCC1)C2 [Compound 51] |

The remaining lines, values behind:

| Structure (SMILES) | IC50 [µM] |
| --- | --- |
| CCN/C(=N\c1cccc(C(F)(F)F)c1)S[C@H]1CC(=O)N(c2ccc(C(=O)O)cc2)C1=O [Compound 03] | 144 |
| Cc1cc(C)c(S(=O)(=O)Nc2ccc(O)c(C(=O)O)c2)c(C)c1 [Compound 06] | > 200 |
| Cc1ccc(Oc2ccc3c(c2)C(=O)N(CC(=O)O)C3=O)cc1 [Compound 07] | > 200 |
| Cc1cc(=O)n2c3c(cc(S(=O)(=O)NCc4ccc(C(=O)O)cc4)cc13)CC2 [Compound 12] | > 200 |
| O=C(CCCc1nc(-c2ccccc2)no1)Nc1ccc(C(=O)O)cc1 [Compound 13] | > 200 |
| O=C(O)c1ccc(-c2ccc(CNC3CCCCC3)o2)cc1 [Compound 14] | > 200 |
| Cc1cccc(C)c1OCC(=O)NCc1ccc(C(=O)O)cc1 [Compound 17] | > 200 |
| O=C(O)c1ccc(NC(=O)C2CC(=O)N(c3ccc(Cl)cc3)C2)cc1 (stereo not shown) [Compound 18] | > 200 |
| CCOc1cc(Cl)c(S(=O)(=O)N2CCC(C(=O)O)CC2)cc1Cl [Compound 19] | > 200 |
| O=C(O)c1ccc(N2C(=O)c3cccc4cc(Br)cc(c34)C2=O)cc1 [Compound 24] | > 200 |
| CCN/C(=N\c1ccc(Cl)c(Cl)c1)S[C@H]1CC(=O)N(c2ccc(C(=O)O)cc2)C1=O [Compound 30] | > 200 |
| Cc1cc2nc(S(=O)(=O)O)n(C)c2cc1C [Compound 31] | > 200 |
| O=C(O)c1ccc(C(=O)Nc2ccc(Br)cc2)c(C(=O)O)c1 [Compound 33] | > 200 |
| O=C(O)c1ccc2c(c1)[C@@H](Cl)Cc1ccccc1S2 [Compound 35] | > 200 |
| O=C1CCC(=O)N1c1ccc(S(=O)(=O)O)cc1 [Compound 36] | > 200 |
| O=C(O)CN1C(=O)[C@@H]2[C@@H](C1=O)[C@H]1C=C[C@@H]2C1 [Compound 37] | > 200 |
| Cc1nn(-c2ccc([N+](=O)[O-])cc2)c(Cl)c1S(=O)(=O)O [Compound 38] | > 200 |
| C#CCOc1ccc2ccccc2c1/C=C1\SC(Nc2cccc(C(=O)O)c2)=NC1=O [Compound 40] | > 200 |
| Cc1cc(C)n(-c2ccc(S(=O)(=O)O)cc2)n1 [Compound 43] | > 200 |
| O=C(O)CCC(=O)Nc1ccc(OCCc2ccccc2)cc1 [Compound 44] | > 200 |
| Cc1ccc(S(=O)(=O)Nc2ccc(O)c(C(=O)O)c2)c(C)c1 [Compound 46] | > 200 |
| O=C(O)c1ccc(NC(=O)[C@H]2CC(=O)N(c3ccc(Cl)cc3)C2)cc1 [Compound 47] | > 200 |
| CN(C)c1ccc(CNCc2ccc(C(=O)O)cc2)cc1 [Compound 49] | > 200 |
| Cc1ccc(Oc2ccc(N3C[C@H](C(=O)O)CC3=O)cc2)cc1C [Compound 50] | > 200 |

same assay, conditions: Table 1; compound marked as agonist; unit inferred; read-out: IC50 Value (agonist)

| IC50 [µM] | Structure (SMILES) |
| --- | --- |
| 60.3 | CN1C(=O)C(Cc2ccc(O)c(Cl)c2)S/C1=N\c1cccc(C(=O)O)c1 (stereo not shown) [Compound 21] |

same assay, conditions: Table 2; unit inferred; read-out: IC50 of the compounds (inhibitory activity on CRAC channel)

| IC50 [µM] | Structure (SMILES) |
| --- | --- |
| > 200 | CN/C(=N/c1ccc(F)cc1)SC1CC(=O)N(c2ccc(C(=O)O)cc2)C1=O (stereo not shown) [Compound 54] |
| > 200 | CCN/C(=N/c1ccc(C(F)(F)F)cc1)SC1CC(=O)N(c2ccc(C(=O)O)cc2)C1=O (stereo not shown) [Compound 55] |
| > 200 | CCOC(=O)c1ccc(N2C(=O)CC(SCc3nnnn3-c3ccccc3)C2=O)cc1 (stereo not shown) [Compound 57] |
| > 200 | COC(=O)c1ccc(N2C(=O)CC(S/C(=N\c3ccccc3)NCc3ccc4c(c3)OCO4)C2=O)cc1 (stereo not shown) [Compound 58] |
| > 200 | CN/C(=N/c1ccc(I)cc1)SC1CC(=O)N(c2ccc(C(=O)O)cc2)C1=O (stereo not shown) [Compound 59] |
| > 200 | CCN/C(=N/c1ccccc1)SC1CC(=O)N(c2ccc(C(=O)O)cc2)C1=O (stereo not shown) [Compound 61] |
| 74.4 | CN/C(=N/c1ccccc1OC)SC1CC(=O)N(c2ccc(C(=O)OC)cc2)C1=O (stereo not shown) [Compound 63] |
| 24.9 | CN/C(=N/c1ccccc1)SC1CC(=O)N(c2ccc(C(=O)OC)cc2)C1=O (stereo not shown) [Compound 64] |
| > 200 | COC(=O)c1ccc(N2C(=O)CC(S/C(=N\c3ccc(Cl)cc3)NCc3ccccc3)C2=O)cc1 (stereo not shown) [Compound 68] |
| 108 | CN/C(=N/c1cc(Cl)cc(Cl)c1)SC1CC(=O)N(c2ccc(C(=O)O)cc2)C1=O (stereo not shown) [Compound 69] |
| > 200 | CN/C(=N/c1cccc(OC)c1)SC1CC(=O)N(c2ccc(C(=O)O)cc2)C1=O (stereo not shown) [Compound 71] |
| > 200 | CCN/C(=N/c1cccc(OC)c1)SC1CC(=O)N(c2ccc(C(=O)O)cc2)C1=O (stereo not shown) [Compound 72] |
| > 200 | CN/C(=N/c1ccccc1)SC1CC(=O)N(c2ccc(C(=O)OC)cc2)C1=O (stereo not shown) [Compound 75] |
| > 200 | CCN/C(=N\c1ccccc1)SC1CC(=O)N(c2ccc(C(=O)OC)cc2)C1=O (stereo not shown) [Compound 76] |
| 11.7 | COC(=O)c1ccc(N2C(=O)CC(S/C(=N/c3ccccc3)NC(C)C)C2=O)cc1 (stereo not shown) [Compound 79] |
| 22.4 | CCOC(=O)c1ccc(N2C(=O)CC(S/C(=N/c3ccccc3)NC)C2=O)cc1 (stereo not shown) [Compound 82] |

Further lines, the compound ahead of its results:

| Structure (SMILES) | IC50 [µM] |
| --- | --- |
| O=C(O)c1ccc(N2C(=O)CC(S/C(=N\c3ccccc3)Nc3ccccc3)C2=O)cc1 (stereo not shown) [Compound 52] | > 200 |
| CN/C(=N/c1cc(Cl)ccc1Cl)SC1CC(=O)N(c2ccc(C(=O)O)cc2)C1=O (stereo not shown) [Compound 56] | > 200 |
| CN/C(=N/c1ccc(C)c(Cl)c1)SC1CC(=O)N(c2ccc(C(=O)O)cc2)C1=O (stereo not shown) [Compound 60] | > 200 |
| CCN/C(=N/c1ccc(C)c(Cl)c1)SC1CC(=O)N(c2ccc(C(=O)OC)cc2)C1=O (stereo not shown) [Compound 62] | 11.3 |
| COC(=O)c1ccc(N2C(=O)CC(S/C(=N\c3cccc(C(F)(F)F)c3)NCCc3ccc(OC)c(OC)c3)C2=O)cc1 (stereo not shown) [Compound 67] | > 200 |
| CN/C(=N/c1cccc(F)c1)SC1CC(=O)N(c2ccc(C(=O)O)cc2)C1=O (stereo not shown) [Compound 70] | > 200 |
| CCN/C(=N/c1cccc(F)c1)SC1CC(=O)N(c2ccc(C(=O)O)cc2)C1=O (stereo not shown) [Compound 73] | > 200 |
| COc1ccc(CN/C(=N/c2ccc(Cl)cc2)SC2CC(=O)N(c3ccc(C(=O)O)cc3)C2=O)cc1 (stereo not shown) [Compound 74] | > 200 |
| CCCN/C(=N\c1ccccc1)SC1CC(=O)N(c2ccc(C(=O)OC)cc2)C1=O (stereo not shown) [Compound 77] | > 200 |
| CCCCN/C(=N\c1ccccc1)SC1CC(=O)N(c2ccc(C(=O)OC)cc2)C1=O (stereo not shown) [Compound 78] | > 200 |
| COC(=O)c1ccc(N2C(=O)CC(S/C(=N/c3ccccc3)NC3CC3)C2=O)cc1 (stereo not shown) [Compound 80] | > 200 |
| COC(=O)c1ccc(N2C(=O)CC(S/C(=N/c3ccccc3)NC(C)(C)C)C2=O)cc1 (stereo not shown) [Compound 81] | > 200 |
| CCN/C(=N\c1ccccc1)SC1CC(=O)N(c2ccc(C(=O)OCC)cc2)C1=O (stereo not shown) [Compound 83] | > 200 |
| CCCN/C(=N\c1ccccc1)SC1CC(=O)N(c2ccc(C(=O)OCC)cc2)C1=O (stereo not shown) [Compound 84] | > 200 |
| CCCCN/C(=N\c1ccccc1)SC1CC(=O)N(c2ccc(C(=O)OCC)cc2)C1=O (stereo not shown) [Compound 85] | > 200 |
| CCOC(=O)c1ccc(N2C(=O)CC(S/C(=N/c3ccccc3)NC(C)C)C2=O)cc1 (stereo not shown) [Compound 86] | 6.34 |
